According to US20110143948A1, “MOLECULAR SIGNATURES AND BIOMARKERS ASSOCIATED WITH MELANOMA AND METHODS OF USE THEREOF” (priority 2008, published 2011):

Experiments:
[1] = tested on: ncRNAs (SEQ ID NO 28-89); experiment: ncRNA arrays of melanocytes, keratinocytes, normal skin, melanoma cell lines and patient samples; design: species or system human; settings: for ncRNA array expression, patient 2: melanoma patient 2 sample compared to normal skin; for ncRNA array expression, patient 3: melanoma patient 3 sample compared to normal skin; for ncRNA array expression, patient 4: melanoma patient 4 sample compared to normal skin; for ncRNA array expression, patient 5: melanoma patient 5 sample compared to normal skin; for ncRNA array expression, patient 6: melanoma patient 6 sample compared to normal skin; for ncRNA array expression, patient 7: melanoma patient 7 sample compared to normal skin; for ncRNA array expression, patient 8: melanoma patient 8 sample compared to normal skin; for ncRNA array expression, patient 9: melanoma patient 9 sample compared to normal skin; for ncRNA array expression, patient 10: melanoma patient 10 sample compared to normal skin; for ncRNA array expression, patient 19: melanoma patient 19 sample compared to normal skin; for ncRNA array expression, patient 20: melanoma patient 20 sample compared to normal skin; for ncRNA array expression, patient 21: melanoma patient 21 sample compared to normal skin; for ncRNA array expression, patient 22: melanoma patient 22 sample compared to normal skin; for ncRNA array expression, patient 23: melanoma patient 23 sample compared to normal skin; for ncRNA array expression, patient 24: melanoma patient 24 sample compared to normal skin; for ncRNA array expression, patient 25: melanoma patient 25 sample compared to normal skin; for ncRNA array expression, patient 26: melanoma patient 26 sample compared to normal skin; for ncRNA array expression, patient 27: melanoma patient 27 sample compared to normal skin; for ncRNA array expression, patient 28: melanoma patient 28 sample compared to normal skin; for ncRNA array expression, patient 29: melanoma patient 29 sample compared to normal skin; for ncRNA array expression, patient 30: melanoma patient 30 sample compared to normal skin
Procedure, shortened: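 Total RNA from melanocytes, keratinocytes, normal human skin, melanoma cell lines and melanoma patient samples was profiled on an array of >10,000 putative (>200 nt) human and mouse ncRNAs plus RefSeq mRNA probes. Expression was compared with melanocytes or normal skin, keratinocyte signatures were subtracted, and hits were validated by qRT-PCR and Northern blot.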

[2] = tested on: FGF2; experiment: beta gal target cleavage assay, FGF2; assay type: cell-based, human; settings: pcDNA6/LacZ/FGF2; data not shown
Protocol: (§1) Target cleavage assays using the miRNA targets from the bioinformatics analyses above were conducted. The 3′ UTR seed sequences of putative target genes were amplified by PCR (Phusion PCR kit, Finnzymes) from human Melanocyte genomic DNA (Primers: ARL2 For-ctcctccaccccagcctgc (SEQ ID NO 92), ARL2 Rev-[…] (SEQ ID NO 93); FGF2 For-[…] (SEQ ID NO 94), FGF2 Rev-[…] (SEQ ID NO 95); RAB22A For-[…] (SEQ ID NO 96), RAB22A Rev-[…] (SEQ ID NO 97); SLC37A3 For-[…] (SEQ ID NO 98), SLC37A3 Rev-[…] (SEQ ID NO 99); TCF12 For-[…] (SEQ ID NO 100), TCF12 Rev-[…] ((SEQ ID NO 101); all primer sets containing 5′ NotI and 3′ AgeI sites). PCR products were cloned into pCR4-TOPO (Invitrogen), confirmed by sequencing, then subcloned into the 3′ UTR of the LacZ gene in pcDNA6/V5-His/LacZ (Invitrogen) using the 5′ NotI and 3′ AgeI restriction sites, and reconfirmed by sequencing (pcDNA6/LacZ/ARL2, pcDNA6/LacZ/FGF2, pcDNA6/LacZ/RAB22A, pcDNA6/LacZ/SLC37A3, and pcDNA6/LacZ/TCF12, respectively). FIG. 11 is an example of the pcDNA6/LacZ construct used within these experiments. As shown, the FGF2 target sequence may be cloned into the 3′ UTR of the LacZ gene. […]

[3] = tested on: TCF12; experiment: beta gal target cleavage assay, TCF12; assay type: cell-based, human; settings: A375 cells, mimic co-transfected at 100 nM; Kruskal Wallis p-value<0.001
Protocol: Target cleavage assays using the miRNA targets from the bioinformatics analyses above were conducted. The 3' UTR seed sequences of putative target genes were amplified by PCR (Phusion PCR kit, Finnzymes) from human Melanocyte genomic DNA (Primers: ARL2 For-[NT] (SEQ ID NO 92), ARL2 Rev-[NT] (SEQ ID NO 93); FGF2 For-[NT] (SEQ ID NO 94), FGF2 Rev-[NT] (SEQ ID NO 95); RAB22A For-[NT] (SEQ ID NO 96), RAB22A Rev-[NT] (SEQ ID NO 97); SLC37A3 For-[NT] (SEQ ID NO 98), SLC37A3 Rev-[NT] (SEQ ID NO 99); TCF12 For-[NT] (SEQ ID NO 100), TCF12 Rev-[NT] ((SEQ ID NO 101); all primer sets containing [NT] AgeI sites). PCR products were cloned into pCR4-TOPO (Invitrogen), confirmed by sequencing, then subcloned into the 3' UTR of the LacZ gene in pcDNA6/[…]/LacZ (Invitrogen) using the [NT] AgeI restriction sites, and reconfirmed by sequencing (pcDNA6/LacZ/ARL2, pcDNA6/LacZ/FGF2, pcDNA6/LacZ/RAB22A, pcDNA6/LacZ/SLC37A3, and pcDNA6/LacZ/TCF12, respectively). FIG. 11 is an example of the pcDNA6/LacZ construct used within these experiments. As shown, the FGF2 target sequence may be cloned into the 3' UTR of the LacZ gene. A375 Melanoma cell lines were transfected in triplicate (Fugene 6, Roche) with 5 μg plasmid DNA of: […] Negative control sequence is based on cel-miR-67, mature sequence: […] been confirmed to have minimal sequence identity with miRNAs in human, mouse and rat or E) no mimic. […]

[4] = tested on: RAB22A; experiment: beta gal target cleavage assay, RAB22A; assay type: cell-based, human; settings: A375 cells, mimic co-transfected at 100 nM
Protocol: as §1

[5] = tested on: SLC37A3; experiment: beta gal target cleavage assay, SLC37A3; assay type: cell-based, human; settings: A375 cells, mimic co-transfected at 100 nM
Protocol: as §1

[6] = tested on: KCNMA1; experiment: beta gal target cleavage assay, KCNMA1; assay type: cell-based, human

Row | Substance | ncRNA array expression, patient 2 [1] | ncRNA array expression, patient 3 [1] | ncRNA array expression, patient 4 [1] | ncRNA array expression, patient 5 [1] | ncRNA array expression, patient 6 [1] | ncRNA array expression, patient 7 [1] | ncRNA array expression, patient 8 [1] | ncRNA array expression, patient 9 [1] | ncRNA array expression, patient 10 [1] | ncRNA array expression, patient 19 [1] | ncRNA array expression, patient 20 [1] | ncRNA array expression, patient 21 [1] | ncRNA array expression, patient 22 [1] | ncRNA array expression, patient 23 [1] | ncRNA array expression, patient 24 [1] | ncRNA array expression, patient 25 [1] | ncRNA array expression, patient 26 [1] | ncRNA array expression, patient 27 [1] | ncRNA array expression, patient 28 [1] | ncRNA array expression, patient 29 [1] | also measured
1 | SEQ ID NO 87 (GGGATATTTTTAAGGGGAAGGGGAAGGATAGAGAGAAAGTGCAGGCAGGGCTGGGGTCTG; listed as DNA, chemistry not given here; listed as Homo sapiens) | −2.131 | −1.6373 | −2.999 | −2.972 | −2.3216 | −2.468 | −2.76 | −1.536 | −1.881 | −0.8262 | −1.935 | −2.079 | −1.312 | −2 | −3.011 | −2.33 | −2.364 | −2.214 | −2.17 | −2.373 | ncRNA array expression, patient 30 [1]: 0.7984
2 | SEQ ID NO 88 (CTGTTGCTTATTCTGGGAGCCCAATCCTAGGCTGAGGGAGGTGGGCGCGGGGCTGTTTAA; listed as DNA, chemistry not given here; listed as Homo sapiens) | −1.501 | −1.118 | −1.158 | −1.192 | −0.882 | −1.165 | −1.206 | −1.551 | −1.883 | −0.5619 | −1.6443 | −1.527 | −0.8009 | −0.3034 | −1.128 | −1.933 | −1.942 | −2.173 | −1.861 | −2.1207 | ncRNA array expression, patient 30 [1]: 0.7208
3 | SEQ ID NO 89 (GGACACAGAGAGTCATGCACCAGCCCAGTGAGAACCAATTCAGAGCCAAATGCCAAACCC; listed as DNA, chemistry not given here; listed as Homo sapiens) | −1.09 | −1.2821 | −1.434 | −1.049 | −0.6535 | −0.5162 | −1.137 | −1.442 | −1.643 | −0.5304 | −0.7949 | −1.104 | −0.9143 | −0.3405 | −0.9409 | −1.675 | −1.6 | −0.9956 | −0.9677 | −1.266 | ncRNA array expression, patient 30 [1]: 0.7591
4 | miR-16: miRIDIAN microRNA Mimic (Dharmacon) for miR-16, UAGCAGCACGUAAAUAUUGGCG (commercial miRIDIAN mimic, chemistry not given here; listed as Homo sapiens) |  |  |  |  |  |  |  |  |  |  |  |  |  |  |  |  |  |  |  |  | targeting of FGF2 (target cleavage assay) [2]: confirmed
5 | miR-211: miRIDIAN microRNA Mimic (Dharmacon) for miR-211, UUCCCUUUGUCAUCCUUCGCCU (commercial miRIDIAN mimic, chemistry not given here; listed as Homo sapiens) |  |  |  |  |  |  |  |  |  |  |  |  |  |  |  |  |  |  |  |  | beta-galactosidase activity, TCF-12 target construct [3]: statistically significant reduction in fold change; beta-galactosidase activity, RAB22A target construct [4]: decreased; beta-galactosidase activity, SLC37A3 target construct [5]: decreased; target binding in KCNMA1 (beta gal target cleavage assay) [6]: confirmed
